The record followed here is patent US8846951B2 (AbbVie Inc., priority 2009, dated 2014).

One assay addresses T1, 5HT2C receptors (Homo sapiens, UniProt P28335).
T1 sequence (P28335 33-458): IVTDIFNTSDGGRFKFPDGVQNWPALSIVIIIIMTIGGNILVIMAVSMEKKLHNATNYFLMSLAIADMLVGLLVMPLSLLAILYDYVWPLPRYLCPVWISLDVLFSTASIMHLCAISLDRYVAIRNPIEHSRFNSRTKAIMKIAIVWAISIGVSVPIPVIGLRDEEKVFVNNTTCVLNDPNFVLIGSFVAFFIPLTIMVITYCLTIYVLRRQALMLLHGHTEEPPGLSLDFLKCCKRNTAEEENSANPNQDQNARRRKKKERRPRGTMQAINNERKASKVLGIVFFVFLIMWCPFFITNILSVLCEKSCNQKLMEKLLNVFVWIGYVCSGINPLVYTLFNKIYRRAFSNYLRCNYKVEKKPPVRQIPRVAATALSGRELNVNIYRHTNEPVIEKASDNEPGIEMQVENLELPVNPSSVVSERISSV
In words: Human 5-HT2C functional high throughput screening assay in CHO-K1 cells (calcium flux). In kind it is cell-based. Details: expressed in transfected cells; host or cells: CHO-K1 cells; call rule not given here. The settings on record: for Emax: CHO-K1, 5-HT2C, maximum functional response as percentage relative to the effect of serotonin; for EC50: CHO-K1 cells, calcium flux. Put shortly: (§1)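 Serum-starved CHO-K1 cells carrying the receptor; Ca4 dye, 60 min RT. Test compound added after a 10 s baseline, fluorescence followed for 3 min. EC50 from 4-parameter fit; Emax given as % of serotonin effect.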
A general note: Calcium flux is commonly read through the fluorescence of an indicator in the cells.

For the next assay, the target named is T2, 5HT2B receptors (Homo sapiens, UniProt P41595).
T2 construct: expressed in transfected cells; host or cells: CHO-K1 cells
Briefly: Human 5-HT2B functional high throughput screening assay in CHO-K1 cells (calcium flux). The format is cell-based. The settings on record: for EC50: CHO-K1 cells, calcium flux. An outline of the steps: as §1

[1] abbreviates: 5-HT2B, maximum functional response as percentage relative to the effect of serotonin.
[2] abbreviates: 5-HT2C agonist activity, read-out: EC50.
Setting [3] is: 5-HT2B agonist activity, read-out: EC50.

Like-named read-outs stand apart in the source and are kept apart here. Bounds are passed on as bounds.

T2 sequence (P41595 whole entry): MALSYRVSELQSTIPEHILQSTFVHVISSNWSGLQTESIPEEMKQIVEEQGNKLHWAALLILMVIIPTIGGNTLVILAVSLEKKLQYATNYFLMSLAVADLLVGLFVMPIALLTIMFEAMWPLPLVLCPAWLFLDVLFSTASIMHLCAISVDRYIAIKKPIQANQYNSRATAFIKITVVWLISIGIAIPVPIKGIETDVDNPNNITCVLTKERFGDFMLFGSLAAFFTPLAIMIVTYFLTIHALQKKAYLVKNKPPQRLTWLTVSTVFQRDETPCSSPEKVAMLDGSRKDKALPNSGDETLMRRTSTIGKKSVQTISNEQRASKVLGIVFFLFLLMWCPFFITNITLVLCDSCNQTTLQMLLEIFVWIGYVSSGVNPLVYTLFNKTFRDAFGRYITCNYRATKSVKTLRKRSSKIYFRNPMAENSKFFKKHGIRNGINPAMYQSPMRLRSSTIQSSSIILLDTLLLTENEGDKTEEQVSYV

As usually defined, the Emax is the size of the effect at its maximum, as opposed to the concentration needed. By EC50 is commonly meant the concentration at which the effect is half-maximal. Take `O=C1NC[C@@H]2CNC[C@H]2c2ccc(OCc3ccccc3F)cc21` [Example 180, (3aS,10bR)-8-(2-Fluorobenzyloxy)-1,2,3,3a,4,5-hexahydrobenzo[e]pyrrolo[3,4-c]azepin-6(10bH)-one]: the Emax on 5HT2C receptors was above 120%; on 5HT2B receptors (setting [1]), “inactive”. Besides, on 5HT2B receptors (EC50, 5-HT2B agonist activity), the EC50 was above 10000 nM.
Regarding `C[C@H](Cc1ccccc1)Oc1ccc2c(c1)C(=O)NC[C@@H]1CN(Cc3ccccc3)C[C@@H]21` (mixture of isomers) [Example 118, Trans-2-benzyl-8-((R)-1-phenylpropan-2-yloxy)-1,2,3,3a,4,5-hexahydrobenzo[e]pyrrolo[3,4-c]azepin-6(10bH)-one], the EC50 was 300 nM on 5HT2C receptors (setting [2]) and above 10000 nM on 5HT2B receptors (setting [3]). For the same compound, the Emax on 5HT2C receptors (read-out: Emax) is above 120%; on 5HT2B receptors (setting [1]), “inactive”.
On to `COc1ccc2c(c1)[C@H]1CNC[C@@H]1CCC2=O` [Example 259, (3aR,10bS)-9-Methoxy-2,3,3a,4,5,10b-hexahydrobenzo[3,4]cyclohepta[1,2-c]pyrrol-6(1H)-one], for which the figures for the maximal effect (Emax) at 5HT2C receptors and on 5HT2B receptors (CHO-K1) were above 120% and 85%, respectively. Moreover, the half-maximal effective concentration (EC50) at 5HT2C receptors (EC50, 5-HT2C agonist activity) stood at 60 nM; at 5HT2B receptors (EC50, 5-HT2B agonist activity), 1000 nM.
For `CN1C[C@@H]2CNC(=O)c3c(OC(F)(F)F)cccc3[C@H]2C1` [Example 113, (3aS,10bS)-2-Methyl-7-(trifluoromethoxy)-1,2,3,3a,4,5-hexahydrobenzo[c]pyrrolo[3,4-e]azepin-6(10bH)-one] the same measures were 120%, 20%, 5 nM and 2000 nM.
`CC(O)c1cccc(-c2cccc3c2OCC[C@H]2CNC[C@H]32)c1` (relative stereo) [Example 367, 1-{3-[Trans-2,3,3a,4,5,10b-hexahydro-1H-[1]benzoxepino[4,5-c]pyrrol-7-yl]phenyl}ethanol]: the EC50 is 20 nM on 5HT2C receptors (setting [2]) and above 10000 nM on 5HT2B receptors (setting [3]). In addition, the maximal response (Emax) was 90% at 5HT2C receptors (read-out: Emax) and “inactive” at 5HT2B receptors (setting [1]).
For `Cc1cc2c(cc1F)C(=O)NC[C@@H]1CNC[C@H]21` (relative stereo) [Example 279, Cis-8-fluoro-9-methyl-1,2,3,3a,4,5-hexahydrobenzo[c]pyrrolo[3,4-e]azepin-6(10bH)-one], the Emax is above 120% at 5HT2C receptors and 90% at 5HT2B receptors (CHO-K1). Besides, the EC50 at 5HT2C receptors (EC50, 5-HT2C agonist activity) came out at 60 nM; at 5HT2B receptors (EC50, 5-HT2B agonist activity) it was 900 nM.
In the case of `C=C(c1ccc2c(c1)C(=O)NC[C@@H]1CN(C)C[C@@H]21)C(F)(F)F` (relative stereo) [Example 202, Trans-2-methyl-8-(3,3,3-trifluoroprop-1-en-2-yl)-1,2,3,3a,4,5-hexahydrobenzo[e]pyrrolo[3,4-c]azepin-6(10bH)-one], the EC50 at 5HT2C receptors (setting [2]) is 400 nM; on 5HT2B receptors (setting [3]), above 10000 nM. Further, the values for the Emax on 5HT2C receptors and at 5HT2B receptors (setting [1]) were 80% and “inactive”, respectively.
Consider `COc1cccc2c1OCC[C@H]1CNC[C@H]21` (relative stereo) [Example 372, Trans-7-methoxy-2,3,3a,4,5,10b-hexahydro-1H-[1]benzoxepino[4,5-c]pyrrole], for which the EC50 on 5HT2C receptors (setting [2]) came to 1000 nM; at 5HT2B receptors (setting [3]), 200 nM. Moreover, the Emax at 5HT2C receptors was 70%; on 5HT2B receptors (CHO-K1) it was 25%.
As to `COc1ccccc1CCOc1ccc2c(c1)C(=O)NC[C@@H]1CNC[C@@H]21` (relative stereo) [Example 173, Trans-8-(2-methoxyphenethoxy)-1,2,3,3a,4,5-hexahydrobenzo[e]pyrrolo[3,4-c]azepin-6(10bH)-one], the EC50 was 20 nM at 5HT2C receptors (setting [2]) and above 10000 nM at 5HT2B receptors (setting [3]). For the same compound, the results for the Emax at 5HT2C receptors (read-out: Emax) and at 5HT2B receptors (setting [1]) were above 120% and “inactive”, respectively.
Regarding `Cc1ccc(-c2ccc3c(c2)C(=O)NC[C@@H]2CN(C)C[C@@H]32)cc1` (relative stereo) [Example 82, Trans-2-methyl-8-p-tolyl-1,2,3,3a,4,5-hexahydrobenzo[e]pyrrolo[3,4-c]azepin-6(10bH)-one], the EC50 is 4.2 nM on 5HT2C receptors (setting [2]) and above 10000 nM at 5HT2B receptors (setting [3]). Also, the Emax was above 120% on 5HT2C receptors (read-out: Emax) and “inactive” at 5HT2B receptors (setting [1]).
As to `Fc1ccc(F)c2c1OCC[C@H]1CNC[C@H]21` (relative stereo) [Example 289, Trans-7,10-difluoro-2,3,3a,4,5,10b-hexahydro-1H-[1]benzoxepino[4,5-c]pyrrole], the figures for the Emax at 5HT2C receptors and at 5HT2B receptors (CHO-K1) were 90% and 95%, respectively. Also, the EC50 on 5HT2C receptors (EC50, 5-HT2C agonist activity) is 7 nM; on 5HT2B receptors (EC50, 5-HT2B agonist activity), 100 nM.
For `Fc1cc(F)c2c(c1)[C@H]1CNC[C@@H]1CCO2` (relative stereo) [Example 283, Trans-7,9-difluoro-2,3,3a,4,5,10b-hexahydro-1H-[1]benzoxepino[4,5-c]pyrrole] the same measures were 80%, 50%, 800 nM and 60 nM.
Turning to `O=C1NC[C@@H]2CN(Cc3ccccc3)C[C@H]2c2ccc(OCCc3ccccc3)cc21` (relative stereo) [Example 121, Trans-2-benzyl-8-phenethoxy-1,2,3,3a,4,5-hexahydrobenzo[e]pyrrolo[3,4-c]azepin-6(10bH)-one], the EC50 on 5HT2C receptors (setting [2]) is 200 nM; at 5HT2B receptors (setting [3]), above 10000 nM. The Emax was 120% on 5HT2C receptors (read-out: Emax) and “inactive” at 5HT2B receptors (setting [1]).
With `CN1CC[C@@H]2CNC[C@H]2c2cccc(Cl)c21` (relative stereo) [Example 375, Trans-7-chloro-6-methyl-1,2,3,3a,4,5,6,10b-octahydropyrrolo[3,4-d][1]benzazepine], the maximal response (Emax) is 100% at 5HT2C receptors and 95% on 5HT2B receptors (CHO-K1). Moreover, the EC50 on 5HT2C receptors (EC50, 5-HT2C agonist activity) is 0.3 nM; at 5HT2B receptors (EC50, 5-HT2B agonist activity) it was 10 nM.
The like results for `Oc1cccc2c1[C@H]1CNC[C@@H]1CCO2` (relative stereo) [Example 374, Trans-2,3,3a,4,5,10b-hexahydro-1H-[1]benzoxepino[4,5-c]pyrrol-10-ol] were, in that order, 90%, 30%, 80 nM and 700 nM.
With `CN1C[C@@H]2CNC(=O)c3cc(OCc4cccc(F)c4F)ccc3[C@H]2C1` [Example 212, (3aS,10bS)-8-(2,3-Difluorobenzyloxy)-2-methyl-1,2,3,3a,4,5-hexahydrobenzo[e]pyrrolo[3,4-c]azepin-6(10bH)-one], the EC50 on 5HT2C receptors (setting [2]) was 0.9 nM; on 5HT2B receptors (setting [3]), above 10000 nM. Moreover, the Emax at 5HT2C receptors (read-out: Emax) was above 120%; at 5HT2B receptors (setting [1]) it was “inactive”.
As for `O=C1NC[C@@H]2CNC[C@H]2c2ccc(-c3ccncc3)cc21` (relative stereo) [Example 177, Trans-8-(pyridin-4-yl)-1,2,3,3a,4,5-hexahydrobenzo[e]pyrrolo[3,4-c]azepin-6(10bH)-one], the Emax at 5HT2C receptors is above 120%; on 5HT2B receptors (setting [1]), “inactive”. For the same compound, the EC50 on 5HT2C receptors (EC50, 5-HT2C agonist activity) is 100 nM; on 5HT2B receptors (EC50, 5-HT2B agonist activity), above 10000 nM.
For the compound `COc1ccc(-c2ccc3c(c2)C(=O)NC[C@@H]2CN(C)C[C@@H]32)cc1` [Example 159, (3aR,10bR)-8-(4-Methoxyphenyl)-2-methyl-1,2,3,3a,4,5-hexahydrobenzo[e]pyrrolo[3,4-c]azepin-6(10bH)-one], the Emax on 5HT2C receptors (read-out: Emax) was 110%; at 5HT2B receptors (setting [1]), “inactive”. For the same compound, the EC50 on 5HT2B receptors (setting [3]) was above 10000 nM.
On to `COc1cccc2c1[C@H]1CNC[C@@H]1CCO2` (relative stereo) [Example 272, Trans-10-methoxy-2,3,3a,4,5,10b-hexahydro-1H-[1]benzoxepino[4,5-c]pyrrole], for which the figures for the Emax on 5HT2C receptors and on 5HT2B receptors (CHO-K1) were above 120% and 20%, respectively. Also, the EC50 was 7 nM on 5HT2C receptors (EC50, 5-HT2C agonist activity) and 200 nM at 5HT2B receptors (EC50, 5-HT2B agonist activity).
In the case of `O=S(=O)(c1ccc(Cl)cc1)N1Cc2cccnc2[C@@H]2CNC[C@H]2C1` (relative stereo) [Example 340, Trans-6-[(4-chlorophenyl)sulfonyl]-5,6,7,7a,8,9,10,10a-octahydropyrido[3,2-c]pyrrolo[3,4-e]azepine], the results for the Emax at 5HT2C receptors and at 5HT2B receptors (setting [1]) were 90% and “inactive”, respectively. Also, the EC50 was 70 nM at 5HT2C receptors (EC50, 5-HT2C agonist activity) and above 10000 nM on 5HT2B receptors (EC50, 5-HT2B agonist activity).
In the case of `Fc1ccc2c(c1)OCC[C@H]1CNC[C@H]21` (relative stereo) [Example 109, Trans-8-fluoro-2,3,3a,4,5,10b-hexahydro-1H-[1]benzoxepino[4,5-c]pyrrole], the results for the Emax on 5HT2C receptors and on 5HT2B receptors (CHO-K1) were above 120% and 55%, respectively. The EC50 on 5HT2C receptors (EC50, 5-HT2C agonist activity) amounted to 40 nM; on 5HT2B receptors (EC50, 5-HT2B agonist activity) it was 300 nM.
For `Brc1ccc2c(c1)[C@H]1CNC[C@@H]1CCO2` (relative stereo) [Example 214, Trans-9-bromo-2,3,3a,4,5,10b-hexahydro-1H-[1]benzoxepino[4,5-c]pyrrole] the same measures were above 120%, 50%, 2 nM and 20 nM.
